Source: patent US20250230147A1, “LACTAMS AS CBL-B INHIBITORS” (Genentech, Inc., priority 2021, published 2025)
Where a name gives a salt, the structure may show the parent alone.

Experiments:
Cbl-b = Cbl-b (Homo sapiens (Human), UniProt Q13191); experiment: Cbl-b LCK Ub TR-FRET assay (Cbl-b Lck HTRF); assay type: biochemical
Method in brief: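 TR-FRET (340 nm excitation, 615/665 nm emission) read after adding HA-ubiquitin–UBE2D2 thioester, anti-HA-D2 and streptavidin-Eu. Beforehand, compounds incubated 60 min with biotinylated Cbl-b, then 90 min with His-LCK and ATP (1 mM in 2× mix); IC50 from 10 concentrations, DMSO high and no-LCK low controls.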

c-Cbl = c-Cbl (Homo sapiens (Human), UniProt P22681); experiment: C-Cbl LCK Ub TR-FRET assay (c-cbl Lck HTRF); assay type: biochemical; details: for (fold-selectivity): C-cbl Lck HTRF IC50 relative to Cbl-b Lck HTRF IC50
c-Cbl, sequence (P22681 47-435): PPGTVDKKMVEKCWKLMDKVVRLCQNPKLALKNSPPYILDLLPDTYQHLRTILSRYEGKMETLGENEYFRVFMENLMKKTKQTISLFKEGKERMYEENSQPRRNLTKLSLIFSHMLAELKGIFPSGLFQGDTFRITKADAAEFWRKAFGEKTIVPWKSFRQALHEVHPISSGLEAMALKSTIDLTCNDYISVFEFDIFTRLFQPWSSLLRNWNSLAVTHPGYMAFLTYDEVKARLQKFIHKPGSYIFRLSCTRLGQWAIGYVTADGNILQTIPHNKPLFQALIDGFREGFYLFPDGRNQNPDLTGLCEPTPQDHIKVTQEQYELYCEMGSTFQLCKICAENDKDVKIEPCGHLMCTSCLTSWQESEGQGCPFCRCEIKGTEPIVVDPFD
Method in brief: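 Detection reagents added, brief spin, 20 min RT. IC50 fit normalized to no-LCK (low) and DMSO (high) controls.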

Cbl-b, sequence (Q13191 40-426): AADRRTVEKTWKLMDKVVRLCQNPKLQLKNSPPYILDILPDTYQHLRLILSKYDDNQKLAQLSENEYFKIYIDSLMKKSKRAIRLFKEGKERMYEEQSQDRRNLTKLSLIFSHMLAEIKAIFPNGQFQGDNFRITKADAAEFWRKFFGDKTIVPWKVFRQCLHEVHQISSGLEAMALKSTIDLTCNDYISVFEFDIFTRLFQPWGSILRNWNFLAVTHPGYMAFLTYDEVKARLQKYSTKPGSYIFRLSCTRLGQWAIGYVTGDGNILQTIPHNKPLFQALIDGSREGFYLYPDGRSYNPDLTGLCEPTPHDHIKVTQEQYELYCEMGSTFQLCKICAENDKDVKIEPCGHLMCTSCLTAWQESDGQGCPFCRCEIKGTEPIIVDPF

IC50 (Cbl-b) [nM] | IC50 (c-Cbl) [nM] | (fold-selectivity) (c-Cbl) | Structure (SMILES)
9.5 | 16 | (1.7x) | Cn1cnnc1CC1(c2cc(OC3CCCC3)nc(N3Cc4c(cc(CNC5(C)CCC5)cc4C(F)(F)F)C3=O)c2)COC1 [Compound 294, 2-(6-(cyclopentyloxy)-4-(3-((4-methyl-4H-1,2,4-triazol-3-yl)methyl)oxetan-3-yl)pyridin-2-yl)-6-(((1-methylcyclobutyl)amino)methyl)-4-(trifluoromethyl)isoindolin-1-one]
9.9 | 13 | (1.3x) | Cn1cnnc1CC1(c2cc(NC3CCCC3)nc(N3Cc4c(cc(CNC5(C)CCC5)cc4C(F)(F)F)C3=O)c2)COC1 [Compound 298, 2-(6-(cyclopentylamino)-4-(3-((4-methyl-4H-1,2,4-triazol-3-yl)methyl)oxetan-3-yl)pyridin-2-yl)-6-(((1-methylcyclobutyl)amino)methyl)-4-(trifluoromethyl)isoindolin-1-one]
5.6 | 4.7 | (0.83x) | Cn1cnnc1CC1(c2cc(C3CC3)nc(N3Cc4c(cc(CNC5(C)CCC5)cc4C(F)(F)F)C3=O)c2)COC1 [Compound 300, 2-(6-cyclopropyl-4-(3-((4-methyl-4H-1,2,4-triazol-3-yl)methyl)oxetan-3-yl)pyridin-2-yl)-6-(((1-methylcyclobutyl)amino)methyl)-4-(trifluoromethyl)isoindolin-1-one]
12 | 10 | (0.86x) | Cn1cnnc1CC1(c2cccc(N3Cc4c(cc(CNC5(C)CCC5)cc4C(F)(F)F)C3=O)c2)COC1 [Compound 301, 2-(3-(3-((4-methyl-4H-1,2,4-triazol-3-yl)methyl)oxetan-3-yl)phenyl)-6-(((1-methylcyclobutyl)amino)methyl)-4-(trifluoromethyl)isoindolin-1-one]
11 | 7.9 | (0.73x) | CCOc1cc(C2(Cc3nncn3C)COC2)cc(N2Cc3c(cc(CNC4(C)CCC4)cc3C(F)(F)F)C2=O)n1 [Compound 304, 2-(6-ethoxy-4-(3-((4-methyl-4H-1,2,4-triazol-3-yl)methyl)oxetan-3-yl)pyridin-2-yl)-6-(((1-methylcyclobutyl)amino)methyl)-4-(trifluoromethyl)isoindolin-1-one]

Continued, compound first:

Structure (SMILES) | IC50 (Cbl-b) [nM] | IC50 (c-Cbl) [nM] | (fold-selectivity) (c-Cbl)
CC(C)[C@H]1CN(C)CCN1Cc1cc2c(c(C(F)(F)F)c1)CN(c1cc(C3(Cc4nncn4C)COC3)cc(OC3CCCC3)n1)C2=O [Compound 293, (S)-2-(6-(cyclopentyloxy)-4-(3-((4-methyl-4H-1,2,4-triazol-3-yl)methyl)oxetan-3-yl)pyridin-2-yl)-6-((2-isopropyl-4-methylpiperazin-1-yl)methyl)-4-(trifluoromethyl)isoindolin-1-one] | 5.5 | 7.8 | (1.4x)
Cn1cnnc1CC1(c2cc(NC3CCCC3)nc(N3Cc4c(cc(CNC5(C)CCC5)cc4C(F)(F)F)C3=O)c2)CCC1 [Compound 295, 2-(6-(cyclopentylamino)-4-(1-((4-methyl-4H-1,2,4-triazol-3-yl)methyl)cyclobutyl)pyridin-2-yl)-6-(((1-methylcyclobutyl)amino)methyl)-4-(trifluoromethyl)isoindolin-1-one] | 44 | 33 | (0.75x)
Cn1cnnc1CC1(c2cc(NC3CCCC3)nc(N3Cc4c(cccc4C(F)(F)F)C3=O)c2)CCC1 [Compound 296, 2-(6-(cyclopentylamino)-4-(1-((4-methyl-4H-1,2,4-triazol-3-yl)methyl)cyclobutyl)pyridin-2-yl)-4-(trifluoromethyl)isoindolin-1-one] | 440 | 2500 | (5.7x)
CC(C)[C@H]1CN(C)CCN1Cc1cc2c(c(C(F)(F)F)c1)CN(c1cc(C3(Cc4nncn4C)COC3)cc(NC3CCCC3)n1)C2=O [Compound 297, (S)-2-(6-(cyclopentylamino)-4-(3-((4-methyl-4H-1,2,4-triazol-3-yl)methyl)oxetan-3-yl)pyridin-2-yl)-6-((2-isopropyl-4-methylpiperazin-1-yl)methyl)-4-(trifluoromethyl)isoindolin-1-one formate] | 9.1 | 8 | –
CC(C)[C@H]1CN(C)CCN1Cc1cc2c(c(C(F)(F)F)c1)CN(c1cc(C3(Cc4nncn4C)CCC3)cc(C#N)n1)C2=O [Compound 299, (S)-6-(6-((2-isopropyl-4-methylpiperazin-1-yl)methyl)-1-oxo-4-(trifluoromethyl)isoindolin-2-yl)-4-(1-((4-methyl-4H-1,2,4-triazol-3-yl)methyl)cyclobutyl)picolinonitrile] | 11 | 5.4 | (0.50x)
COCCN1CCC(Nc2cc(C3(Cc4nncn4C)CCC3)cc(N3Cc4c(cc(CNC5(C)CCC5)cc4C(F)(F)F)C3=O)n2)CC1 [Compound 302, 2-(6-((1-(2-methoxyethyl)piperidin-4-yl)amino)-4-(1-((4-methyl-4H-1,2,4-triazol-3-yl)methyl)cyclobutyl)pyridin-2-yl)-6-(((1-methylcyclobutyl)amino)methyl)-4-(trifluoromethyl)isoindolin-1-one] | 590 | 660 | (1.1x)
Cn1cnnc1CC1(c2cc(NCCCN3CCOCC3)nc(N3Cc4c(cc(CNC5(C)CCC5)cc4C(F)(F)F)C3=O)c2)CCC1 [Compound 303, 2-(4-(1-((4-methyl-4H-1,2,4-triazol-3-yl)methyl)cyclobutyl)-6-((3-morpholinopropyl)amino)pyridin-2-yl)-6-(((1-methylcyclobutyl)amino)methyl)-4-(trifluoromethyl)isoindolin-1-one] | 310 | 190 | (0.59x)
Cc1cnnn1CC1(c2cccc(N3Cc4c(cc(CNC5(C)CCC5)cc4C(F)F)C3=O)c2)COC1 [Compound 305, 4-(difluoromethyl)-2-(3-(3-((5-methyl-1H-1,2,3-triazol-1-yl)methyl)oxetan-3-yl)phenyl)-6-(((1-methylcyclobutyl)amino)methyl) isoindolin-1-one] | 39 | 49 | (1.3x)
Cn1cnnc1CC1(c2cc(N[C@H]3CC[C@@H](N)CC3)nc(N3Cc4c(cc(CNC5(C)CCC5)cc4C(F)(F)F)C3=O)c2)CCC1 [Compound 306, 2-(6-(((1s,4s)-4-aminocyclohexyl)amino)-4-(1-((4-methyl-4H-1,2,4-triazol-3-yl)methyl)cyclobutyl)pyridin-2-yl)-6-(((1-methylcyclobutyl)amino)methyl)-4-(trifluoromethyl)isoindolin-1-one] | 76 | 89 | (1.2x)
CCNC(=O)CNc1cc(C2(Cc3nncn3C)CCC2)cc(N2Cc3c(cc(CNC4(C)CCC4)cc3C(F)(F)F)C2=O)n1 [Compound 307, N-ethyl-2-((4-(1-((4-methyl-4H-1,2,4-triazol-3-yl)methyl)cyclobutyl)-6-(6-(((1-methylcyclobutyl)amino)methyl)-1-oxo-4-(trifluoromethyl)isoindolin-2-yl)pyridin-2-yl)amino)acetamide formate] | 180 | 310 | –
